Details: Liquid, Buoyancy - hydrostatic balance with magnetic suspension - one sinker

C1CCCCC1 [cyclohexane]
Details	mass density [kg/m3]
293.15 K, 99.46 kPa	778.632
293.15 K, 1102 kPa	779.471
293.15 K, 2002.4 kPa	780.22
293.15 K, 4003.9 kPa	781.856
293.15 K, 6003.8 kPa	783.454
293.15 K, 8003.3 kPa	785.025
293.15 K, 10042 kPa	786.595
293.15 K, 12046 kPa	788.105
293.15 K, 13919 kPa	789.495
293.15 K, 15982 kPa	790.995
293.15 K, 17946 kPa	792.401
293.15 K, 20017 kPa	793.855
313.15 K, 102.48 kPa	759.667
313.15 K, 1139 kPa	760.675
313.15 K, 2012.2 kPa	761.509
313.15 K, 4102.4 kPa	763.47
313.15 K, 5932.8 kPa	765.157
313.15 K, 7910.5 kPa	766.936
313.15 K, 10018 kPa	768.784
313.15 K, 12069 kPa	770.545
313.15 K, 13965 kPa	772.137
313.15 K, 15902 kPa	773.737
313.15 K, 17956 kPa	775.394
313.15 K, 20142 kPa	777.123
333.15 K, 1112.4 kPa	741.367
333.15 K, 2043.6 kPa	742.401
333.15 K, 3988 kPa	744.517
333.15 K, 5966.8 kPa	746.613
333.15 K, 8141.8 kPa	748.853
333.15 K, 10007 kPa	750.72
333.15 K, 11994 kPa	752.664
333.15 K, 14093 kPa	754.666
333.15 K, 15963 kPa	756.414
333.15 K, 17995 kPa	758.261
333.15 K, 19861 kPa	759.929
353.15 K, 1109.9 kPa	721.547
353.15 K, 1973.2 kPa	722.669
353.15 K, 4000 kPa	725.242
353.15 K, 6001.3 kPa	727.698
353.15 K, 8046.5 kPa	730.125
353.15 K, 10046 kPa	732.423
353.15 K, 11820 kPa	734.413
353.15 K, 13860 kPa	736.633
353.15 K, 15940 kPa	738.835
353.15 K, 18023 kPa	740.978
353.15 K, 20003 kPa	742.965
373.15 K, 1115.5 kPa	701.065
373.15 K, 1950.1 kPa	702.346
373.15 K, 4154.1 kPa	705.638
373.15 K, 6126 kPa	708.455
373.15 K, 8029.4 kPa	711.079
373.15 K, 9951.2 kPa	713.63
373.15 K, 12097 kPa	716.383
373.15 K, 13877 kPa	718.592
373.15 K, 16148 kPa	721.319
373.15 K, 18078 kPa	723.568
373.15 K, 19877 kPa	725.607
393.15 K, 1162.9 kPa	679.792
393.15 K, 1960.3 kPa	681.265
393.15 K, 3901.4 kPa	684.723
393.15 K, 5983.9 kPa	688.253
393.15 K, 7986.4 kPa	691.487
393.15 K, 9903.3 kPa	694.452
393.15 K, 11975 kPa	697.527
393.15 K, 13821 kPa	700.163
393.15 K, 16029 kPa	703.195
393.15 K, 18027 kPa	705.845
393.15 K, 20004 kPa	708.371
413.15 K, 1196.7 kPa	657.32
413.15 K, 2172.6 kPa	659.527
413.15 K, 4146.4 kPa	663.767
413.15 K, 6122.3 kPa	667.756
413.15 K, 8132.6 kPa	671.583
413.15 K, 10013 kPa	674.989
413.15 K, 11993 kPa	678.397
413.15 K, 14004 kPa	681.703
413.15 K, 16053 kPa	684.936
413.15 K, 18098 kPa	688.022
413.15 K, 19935 kPa	690.694
433.15 K, 1086.7 kPa	632.817
433.15 K, 2070.6 kPa	635.63
433.15 K, 4050.3 kPa	640.931
433.15 K, 6077 kPa	645.937
433.15 K, 8181.7 kPa	650.742
433.15 K, 10077 kPa	654.811
433.15 K, 12111 kPa	658.913
433.15 K, 13890 kPa	662.325
433.15 K, 15959 kPa	666.096
433.15 K, 18073 kPa	669.76
433.15 K, 20010 kPa	672.969
453.15 K, 2100.8 kPa	609.942
453.15 K, 4117.3 kPa	616.844
453.15 K, 6121.3 kPa	623.004
453.15 K, 8117.4 kPa	628.596
453.15 K, 9915.4 kPa	633.254
453.15 K, 11931 kPa	638.115
453.15 K, 13935 kPa	642.628
453.15 K, 15959 kPa	646.918
453.15 K, 18103 kPa	651.206
453.15 K, 19890 kPa	654.601
473.15 K, 2403.5 kPa	582.448
473.15 K, 3924.9 kPa	589.431
473.15 K, 6045.2 kPa	597.933
473.15 K, 8093.2 kPa	605.148
473.15 K, 9884.3 kPa	610.832
473.15 K, 11911 kPa	616.733
473.15 K, 13943 kPa	622.171
473.15 K, 16018 kPa	627.319
473.15 K, 18133 kPa	632.216
473.15 K, 20025 kPa	636.335
